Reference: patent publication US20090143438A1, “Novel Pyridine Derivative Having Anti-Helicobacter Pylori Activity” (Arigen Pharmaceuticals, Inc., priority 2006, published 2009)
Values after ≈ are worked out from the molar mass of the structure shown.

Columns and labels:
[1] = test system: Helicobacter pylori NCTC11916; details: standard strain NCTC11916; data from Table 6 of JP-A No. 7-69888; cited from earlier work
[2] = test system: Helicobacter pylori NCTC11637; details: standard strain NCTC11637; data from Table 6 of JP-A No. 7-69888; cited from earlier work
[3] = test system: H. pylori, ATCC 43504; test: Antibacterial power test, Columbia agar, MIC; format: cell-based, Helicobacter pylori; details: Helicobacter pylori, ATCC43504, 72 h, 37° C., pH 7.0, 3 days, read on 4th day, read-out: MIC, in vitro anti-Helicobacter pylori activity
Method: An in vitro test was performed in a Columbia agar medium using a standard strain of H. pylori, ATCC 43504. […] Each of the test objects was dissolved in a 1% DMSO solution. Furthermore, as antibiotic control drugs, ampicillin from the penicillin family (control drug 1), gentamycin from the aminoglycoside family (control drug 2), tetracycline from the tetracycline family (control drug 3), and ofloxacin from the new quinolone family (control drug 4) were used.

Structure (SMILES) | MIC [1] [µg/mL] | MIC [2] [µg/mL] | MIC [3] [µg/mL]
COc1ccc2[nH]c([S+]([O-])Cc3ncc(C)c(OC)c3C)nc2c1 (stereo not shown) [(a), 5-methoxy-2-(4-methoxy-3,5-dimethylpyridin-2-yl)methylsulfinyl-1H-benzimidazole] | 50 (≈ 145 µM) | 50 (≈ 145 µM) | –
COc1ccc2[nH]c(SCc3ncc(C)c(OC)c3C)nc2c1 [(b), 5-methoxy-2-(4-methoxy-3,5-dimethylpyridin-2-yl)methylthio-1H-benzimidazole] | 12.5 (≈ 37.9 µM) | 12.5 (≈ 37.9 µM) | –
Cc1c(OCC(F)(F)F)ccnc1C[S+]([O-])c1nc2ccccc2[nH]1 (stereo not shown) [(c), 2-[3-methyl-4-(2,2,2-trifluoroethoxy)pyridine-2-yl]methylsulfinyl-1H-benzimidazole] | 12.5 (≈ 33.8 µM) | 6.25 (≈ 16.9 µM) | –
Cc1c(OCC(F)(F)F)ccnc1CSc1nc2ccccc2[nH]1 [(d), 2-[3-methyl-4-(2,2,2-trifluoroethoxy)pyridine-2-yl]methylthio-1H-benzimidazole] | 1.56 (≈ 4.41 µM) | 1.56 (≈ 4.41 µM) | –
COCCCOc1ccnc(C[S+]([O-])c2nc3ccccc3[nH]2)c1C.[Na] (stereo not shown) [(e), 2-[4-(3-methoxypropoxy)-3-methylpyridin-2-yl]methylsulfinyl-1H-benzimidazole sodium salt] | 1.56 | 0.8 | –
COCCCOc1ccnc(CSc2nc3ccccc3[nH]2)c1C [(f), 2-[4-(3-methoxypropoxy)-3-methylpyridin-2-yl]methylthio-1H-benzimidazole] | 1.56 (≈ 4.54 µM) | 0.8 (≈ 2.33 µM) | –
Cc1c(OCCO)ccnc1CSc1nc2ccccc2[nH]1 [Comparative Compound 1, 2-[{4-(2-hydroxyethoxy)-3-methylpyridin-2-yl}methylthio]-1H-benzimidazole, reference compound] | – | – | 10 (≈ 31.7 µM)
